Test results from patent US10004222B2, “Small molecule ice recrystallization inhibitors and methods of use thereof” (THE UNIVERSITY OF OTTAWA, priority 2012, dated 2018).

System: HepG2 cells
Experiment: human liver cell viability, MTT assay
Format: cell-based
Settings: at the concentration that yielded the highest functionality; overnight at 37° C.
Procedure: In the assay, HepG2 cells (human hepatocellular carcinoma cells) were harvested and incubated at 37° C. overnight in a 96-well plate to a concentration of 20,000 cells per well using Minimum Essential Medium (MEM) as media. The following day (or once cells were confluent) the media was removed and cells were incubated at 37° C. overnight with MEM supplemented with desired concentration of PMP-Glc and NOGlc (100 μL of solution added). The following day the plates were centrifuged (700 RPM for 3 minutes) and the solutions were removed. 200 μL of MEM was added to each well, followed by 50 μL of 2.5 mg/mL MTT solution in Hank's Balanced Salt Solution (HBSS) to a final concentration of 0.5 mg/mL MTT per well. Then the plates were incubated for 3 hours at 37° C. After incubation, the plates were centrifuged (700 RPM for 3 minutes) and 200 μL of a 10% TritonX/0.1 N HCl in isopropanol solution was added to each well. The plates were incubated in the dark for 1 hour, then shaken and the absorbance at […] of each well was read. % viability at 37° C. of PMP-Glc at a concentration 11 mM, 22 mM, 44 mM, 110 mM and 220 mM PMP-Glc was measured, and the results are shown in FIG. 12. % viability at 37° C. of NOGlc at a concentration of 0.1 mM, 0.2 mM, 0.5 mM, 1 mM, 2 mM and 5 mM was measured. Also, % viability at 37° C. of PMP-Glc, pFPh-Glc and pBrPh-Glc at a concentration of 11 mM, 22 mM, 44 mM, 55 mM, 110 mM and 220 mM was measured under the same conditions for the MTT Assay described above.
Human liver cell viability in compound (3a), (4a), […], and (1b) was assessed using a 3-(4,5-dimethylthiazol-2-yl)-2,5-diphenyltetrazolium bromide (MTT) Assay. In the assay, HepG2 cells (human hepatocellular carcinoma cells) were harvested and incubated overnight at 37° C. in a 96-well plate to a concentration of 20,000 cells per well using Minimum Essential Medium (MEM) as media. The following day, the media was removed and cells were incubated at 37° C. overnight with 100 μL MEM supplemented with different concentrations of (3a), (2a), (4a), and (1b). The following day, the plates were centrifuged at 1000 rpm for 5 minutes and solutions removed by aspiration. 200 μL of MEM was added to each well, followed by 50 μL of 2.5 mg/mL MTT (dissolved in HBSS). The plates were then incubated at 37° C. for 4 hours. After incubation, the plates were centrifuged at 1000 rpm for 5 minutes and solution was aspirated. […] The plates were incubated at ambient temperature for 3 hours before being shaken and the absorbance at 570 nm of each well was read. % viability at 37° C. of (3a) at 11 mM, 22 mM, 44 mM, 55 mM and 110 mM was measured and the results are shown in FIG. 37. […] Nonetheless, the cytotoxicity of DMSO itself was not determined.

Compound | cytotoxicity
COc1ccc(NC(=O)[C@H](O)[C@@H](O)[C@H](O)[C@H](O)CO)cc1 [(3a), N-(4-methoxyphenyl)-D-gluconamide] | minimally cytotoxic relative to DMSO alone
O=C(Nc1ccccc1F)[C@H](O)[C@@H](O)[C@H](O)[C@H](O)CO [(2a), N-(2-fluorophenyl)-D-gluconamide] | minimally cytotoxic relative to DMSO alone
O=C(NCc1c(F)cccc1F)[C@H](O)[C@@H](O)[C@H](O)[C@H](O)CO [(1b), N-(2,6-difluorobenzyl)-D-gluconamide] | minimally cytotoxic relative to DMSO alone
O=C(Nc1ccc(Cl)cc1)[C@H](O)[C@@H](O)[C@H](O)[C@H](O)CO [(4a), N-(4-chlorophenyl)-D-gluconamide] | minimally cytotoxic relative to DMSO alone
